# Earlier results in patent publication US5298246A, “Stable pharmaceutical composition and method for its production” (Kanegafuchi Kagaku Kogyo Kabushiki Kaisha, priority 1991, dated 1994).
smiles,measurement,value
COC1=C(OC)C(=O)C(C/C=C(\C)CC/C=C(\C)CC/C=C(\C)CC/C=C(\C)CC/C=C(\C)CC/C=C(\C)CC/C=C(\C)CC/C=C(\C)CC/C=C(\C)CCC=C(C)C)=C(C)C1=O [ubidecarenone],absorbability upon oral administration,low
